# Laboratory results reported in patent US10822367B2, “Pharmaceutical composition for preventing or treating dementia and improving cognitive function, comprising glasswort extract” (priority 2017, dated 2020).
# pIC50: −log10 of the molar value.
# Experiments:
# [1] = test system: forgetfulness animal models using scopolamine; test: Y-maze test; type: in vivo
# Method: A test was conducted to investigate the improvement efficacy of cognitive ability and memory of the desalted Salicornia europaea extract (PM-EE) obtained in example 4-1 above and acanthoside B as an AChE inhibitory and neuroinflammation inhibiting substance isolated from PM-EE in examples 4-2 and 4-3. The Y-maze test was conducted in forgetfulness animal models using scopolamine. In the present test, PM-EE and acanthoside B were dissolved in 10% Tween 80, and then the mixture was orally administered at different concentrations (PM-EE and acanthoside B). […] For the Y-maze test, a test animal was carefully placed in a test apparatus composed of three arms (A, B, C) of a black polyvinyl plastic, each of the arms being 50 cm in length, 10 cm in width, and 20 cm in height, and the folding angle of the three arms being 120 degrees, and the test animal was allowed to freely move for 8 minutes, and then the number of arm entries was recorded. If the test animal sequentially entered the three different arms, 1 point (actual alternation) was given. The alternation behavior was calculated by the following formula. Alternation behavior=(actual alternation)/(maximum alternation)×100 (maximum alternation: the total number of arm entries−2)
# [2] = biological target: acetylcholine esterase (AChE) (Homo sapiens, UniProt P22303); test: Acetylcholine esterase inhibitory activity (partially corrected Ellman's coupled enzyme assay); type: biochemical
# Text: It has been reported that as the concentration of acetylcholine esterase (AChE) increases in the cerebral blood vessels, cholinergic neurotransmitters for neurons are deficient in neurons, causing memory and cognitive impairment. Therefore, the measurement of AChE inhibitory activity can be used as a tool for the development of a drug or health functional raw material for prevention and treatment of dementia or enhancement of cognitive ability. In the present invention, the AChE inhibitory activity of a desalted Salicornia europaea extract, a desalted Salicornia europaea enzymatic hydrolysis extract, or purified fractions obtained from a desalted Salicornia europaea extract were measured, and the measurement was conducted by partially correcting Ellman's coupled enzyme assay. That is, 170 μL of 100 mM phosphate buffer (pH 8), […] of 2 mM dithiobisnitrobenzoic acid (DTNB), and 20 μL of an extraction sample were added to on a 96-well microplate. […] The enzymatic reaction solution was incubated at 37° C. for 10 minutes, and then the absorbance was measured by a UV-VIS microreader at 410 nm. The AChE inhibitory activity was calculated as below by comparison between the absorbance (Ac) of a control group not containing a substrate and a sample and the absorbance (As) of a test group. *AChE inhibitory activity (%)=[1−(As/Ac)]×100 • Ac: absorbance of a control group, • As: absorbance of a sample group.
# [3] = test system: LPS-stimulated mouse BV-2 microglia; test: LPS-induced nitric oxide (NO) production, NO assay using Griess reagent; type: cell-based; conditions: 1, 5, 100 μg/mL as printed; LPS 200 ng/ml (FIG. 10b)
# Method: (§1) A test was conducted to investigate effects of the neuroinflammation inducing substance LPS (200 mg/mL) and the active ingredient acanthoside B of PM-EE on brain glia cells in LPS-stimulated brain glia cells BV2 microglia. The cells were treated with each material at different concentrations (1, 5, 10 μg/mL), and a cytotoxicity test was conducted through MTT analysis. […] Therefore, in order to analyze the neuroinflammation inhibitory ability of acanthoside B at concentrations (1, 5, 100 μg/mL) without cytotoxicity, as for whether the nitric oxide (NO) produced in LPS (200 ng/ml)-stimulated mouse BV-2 microglia was inhibited by acanthoside B, the content of intracellular LPS-induced nitric oxide (NO) was measured through NO assay using Griess reagent.
# [4] = test system: iNOS and COX-2 protein in LPS-stimulated BV2 microglia; test: Neuroinflammation factor protein expression by western blotting; type: cell-based, mouse; conditions: acanthoside B; LPS-induced (FIG. 10c)
# Method: as §1
# [5] = test system: neuroinflammation-related genes (IL-1β, iNOS, COX-2, and TNF-α) in BV2 microglia; test: Neuroinflammation gene expression by RT-PCR; type: cell-based, mouse
# Method: BV2 microglia as neuroglia were treated with LPS and the desalted Salicornia europaea extract (PM-EE) at different concentrations (0-100 μg/mL). After 1 hour, cells were stimulated by LPS, and after 3 hours, an RNA sample was isolated by an RNA extraction buffer. Thereafter, RT-PCR assay was conducted through RNA purification procedure. […] RNA isolated from BV2 microglia was subjected to denaturation at 95° C. for […], 45 times of chain reactions in conditions of 95° C. for 5 seconds and 60° C. for 20 seconds, and annealing to 95° C. at 0.2° C./15 sec, using the primers in Table 4, and then the reaction was stopped. Last, separation by bp size was conducted through agarose gel electrophoresis. Then, bands were checked under UV, and fluorescence was imaged by a camera. As shown in the results in FIG. 9, the expressions of neuroinflammation-related genes (IL-1β, iNOS, COX-2, and TNF-α) were not or slightly observed in a control group treated without LPS.
# A test was conducted to investigate an effect of acanthoside B on neuroinflammation factor gene expression. […] After 3 hours, RNA sample was separated by RNA extraction buffer to synthesize cDNA, and RT-PCR was conducted by the same method as in example 6 using the primers in Table 4. […]
# [6] = test system: forgetfulness animal models using scopolamine; test: Passive avoidance test; type: in vivo, mice
# Method: Mice were placed in the bright section with shining light and allowed to go over for 20 seconds. Subsequently, the guillotine door was opened and the mouse was allowed to enter into the dark section. […] The time from when the guillotine door was opened to when the mouse entered the dark section was measured. Once the mouse entered the dark section, the guillotine door was closed, and an electric shock of 0.25 mA flows through a grid bottom for 3 seconds, and the mouse remembered this electrical action. The present test was conducted 24 hours after the learning test. […] Here, the longer the time taken, the better the cognitive ability and memory in passive avoidance.
# [7] = Solubility (physical and chemical properties); type: physicochemical
# Text: As a result of the measurement above, the compound S7-L3-3 was identified to be acanthoside B ((2S,3R,4S,5S,6R)-2-[4-[(3S,3aR,6S,6aR)-3-(4-hydroxy-3,5-dimethoxyphenyl)-1,3,3a,4,6,6a-hexahydrofuro [3,4-c]furan-6-yl]-2,6-dimethoxyphenoxy]-6-(hydroxymethyl)oxane-3,4,5-triol) having a molecular weight of 580, which has not been reported in Salicornia europaea until now, and the physical and chemical properties thereof are as follows.
# BV2 microglia = test: Cytotoxicity test through MTT assay in LPS-stimulated BV2 microglia; conditions: acanthoside B 1, 5, 10 μg/mL, alone or together with LPS (FIG. 10a)
# Method: as §1
# acetylcholine esterase (AChE), sequence (P22303 32-614): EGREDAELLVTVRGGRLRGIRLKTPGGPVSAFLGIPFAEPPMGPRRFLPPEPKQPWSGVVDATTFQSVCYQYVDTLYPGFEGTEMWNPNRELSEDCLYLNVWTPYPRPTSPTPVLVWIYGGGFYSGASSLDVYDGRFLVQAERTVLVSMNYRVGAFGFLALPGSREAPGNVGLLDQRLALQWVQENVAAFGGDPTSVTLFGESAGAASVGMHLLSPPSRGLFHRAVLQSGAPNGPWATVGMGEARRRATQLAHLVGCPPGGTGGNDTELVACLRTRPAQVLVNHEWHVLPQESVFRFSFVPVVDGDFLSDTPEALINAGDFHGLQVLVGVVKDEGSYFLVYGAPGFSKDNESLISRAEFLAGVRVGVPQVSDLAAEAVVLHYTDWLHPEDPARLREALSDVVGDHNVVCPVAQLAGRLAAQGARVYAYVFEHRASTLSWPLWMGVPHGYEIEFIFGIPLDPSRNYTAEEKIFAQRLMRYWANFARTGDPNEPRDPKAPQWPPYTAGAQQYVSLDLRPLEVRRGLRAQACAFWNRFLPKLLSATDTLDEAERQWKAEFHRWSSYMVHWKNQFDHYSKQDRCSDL
smiles,measurement,setting,value
"CN1[C@@H]2C[C@@H](OC(=O)[C@H](CO)c3ccccc3)C[C@H]1[C@@H]1O[C@@H]12 [scopolamine, reference compound]",Alternation behavior after administration of scopolamine,[1]; normal control group scored 50 points,45.5 points
"COc1cc([C@H]2OC[C@H]3[C@@H]2CO[C@@H]3c2cc(OC)c(O[C@@H]3O[C@H](CO)[C@@H](O)[C@H](O)[C@H]3O)c(OC)c2)cc(OC)c1O [acanthoside B, (2S,3R,4S,5S,6R)-2-[4-[(3S,3aR,6S,6aR)-3-(4-hydroxy-3,5-dimethoxyphenyl)-1,3,3a,4,6,6a-hexahydrofuro [3,4-c]furan-6-yl]-2,6-dimethoxyphenoxy]-6-(hydroxymethyl)oxane-3,4,5-triol]",pIC50,[2]; IC50 (AChE inhibitory activity),5.32
same,inhibition at 10 µg/mL,[2]; read-out: AChE inhibitory activity,93.2%
same,LPS-induced amplified intracellular nitric oxide (NO),[3],remarkably decreased dependently on the treatment concentration
same,Expressions of iNOS and COX-2 protein (western blotting),[4],remarkably inhibited
same,"LPS-induced amplified neuroinflammation-related genes (IL-1β, iNOS, COX-2, TNF-α) at high concentration",[5]; 10 μg/mL (FIG. 11),restored to almost the same level as that of a control group before LPS induction
same,"mRNA expression pattern of IL-1β, iNOS, COX-2, and TNF-α (RT-PCR)","[5]; 1, 5, 10 μg/mL, LPS-stimulated (FIG. 11)",reduced dose-dependently
same,Cognitive ability and memory improvement compared with galantamine (passive avoidance),[6]; administration at high concentrations,"more superior cognitive ability and memory improvement effects compared with the dementia drug, galantamine"
same,Transfer latency time (TLT: retention time),"[6]; scopolamine 1 mg/kg intraperitoneally, different concentrations of sample (FIG. 12a, 12b)",significantly increased
same,Cognitive ability and memory improvement compared with galantamine (Y-maze),[1]; galantamine 10 mg/kg as positive control,superior cognitive ability and memory improvement effects to galantamine
same,Alternation behavior (spatial cognitive ability),"[1]; orally administered at different concentrations in 10% Tween 80, scopolamine model (FIG. 13a, 13b)",restored dose-dependently
same,Solubility,[7],"soluble in methanol, ethanol, ethyl acetate, ethyl acetate, chloroform, or pyridine"
same,Cell viability (MTT),BV2 microglia,not significantly changed
"COc1cc([C@H]2OC[C@@H]3[C@@H]2CO[C@H]3c2cc(OC)c(O[C@@H]3O[C@H](CO)[C@@H](O)[C@H](O)[C@H]3O)c(OC)c2)cc(OC)c1O[C@@H]1O[C@H](CO)[C@@H](O)[C@H](O)[C@H]1O [Elutheroside E, eleutheroside E, reference compound]",IC50 (AChE inhibitory activity),[2],8.2 ± 0.37 µg/mL
